Reference: PMC10601815, “αβ,α′β′-Diepoxyketones are mechanism-based inhibitors of nucleophilic cysteine enzymes” (Chemical Communications (Cambridge, England), 2023)
Where “and” joins values, the source holds several entries; their conditions need not be identical. Identical values can stand only once. Like-named read-outs stand apart in the source and are kept apart here.

Tests used:
LdtMt2 [1] = target: T1, LdtMt2 (Mycobacterium tuberculosis, UniProt I6Y9J2); assay: biochemical
LdtMt2 [2] = target: T1, LdtMt2; assay type: binding
[3] = for kchem (kinetic rate constant for reactivity with GSH): 500 nM L-glutathione, 10 µM Probe 1, pH 7.2; for half-life (t1/2) of reaction with GSH: buffer
LdtMt2 [4] = target: T1, LdtMt2; assay: biochemical; details: for IC50: read-out: pIC50 LdtMt2 (converted)
[5] = 1 µM LdtMt2, inhibitor 20 µM (100 µM for 12), rt, 15 min
[6] = 1 µM LdtMt2, inhibitor 20 µM (100 µM for 12), rt, 24 h

T1 sequence (I6Y9J2 56-408): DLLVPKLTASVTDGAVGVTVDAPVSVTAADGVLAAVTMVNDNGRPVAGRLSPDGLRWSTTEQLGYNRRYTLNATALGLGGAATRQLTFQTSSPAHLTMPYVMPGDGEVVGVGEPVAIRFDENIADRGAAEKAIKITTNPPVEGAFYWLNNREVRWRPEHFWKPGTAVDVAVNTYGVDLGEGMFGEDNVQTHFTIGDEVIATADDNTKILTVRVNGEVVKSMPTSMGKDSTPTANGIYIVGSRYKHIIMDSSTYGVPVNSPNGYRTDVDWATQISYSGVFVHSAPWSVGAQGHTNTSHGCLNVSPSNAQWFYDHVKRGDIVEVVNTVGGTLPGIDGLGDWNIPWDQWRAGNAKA

Row | SMILES | kinact/KI LdtMt2 (LdtMt2 [1]) [M⁻¹ s⁻¹] | Area (%) 15 min, assignment Retro-aldol fragment (3) (LdtMt2 [2]) [%] | Area (%) 15 min, assignment Unfragmented (2) (LdtMt2 [2]) [%] | Area (%) 15 min, assignment Unmodified LdtMt2 (LdtMt2 [2]) [%] | Area (%) 24 h, assignment Dha (-34 Da) (LdtMt2 [2]) | Area (%) 24 h, assignment Retro-aldol fragment (3) (LdtMt2 [2]) [%] | Area (%) 24 h, assignment Unfragmented (2) (LdtMt2 [2]) [%] | Area (%) 24 h, assignment Unmodified LdtMt2 (LdtMt2 [2]) [%] | kchem (kinetic rate constant for reactivity with GSH) [3] | pIC50 LdtMt2 (LdtMt2 [4]) | other results
1 | COc1ccccc1C1OC1C(=O)C1OC1c1ccccc1OC (mixture of isomers) [DEK 5] | 61.1 ± 2.78 | 9.0 | 77.9 | 2.5 | ~30% and 30.4% | 39.6 | 0.0 | 0.0 | < 0.8 M⁻¹ s⁻¹ | – | Area (%) 15 min, adduct with assignment N.D. (+309 Da for 5, +80 Da for 8 and 9) (LdtMt2 [2]): 0.0%; Area (%) 15 min, assignment Dha (-34 Da) (LdtMt2 [2]): 0.0%; Area (%) 15 min, assignment Unassigned fragment / Fragment II (+56/+57 Da) (LdtMt2 [2]): 0.0%; Area (%) 24 h, adduct with assignment N.D. (+309 Da for 5, +80 Da for 8 and 9) (LdtMt2 [2]): 4.22%
2 | Cc1cccc(C)c1C1OC1C(=O)C1OC1c1c(C)cccc1C (mixture of isomers) [DEK 8] | < 10.0 | 0.0 | – | 100.0 | – | 16.3 | – | 68.8 | 1.11 ± 0.20 M⁻¹ s⁻¹ and 1.1 ± 0.2 M⁻¹ s⁻¹ | – | inhibition of LdtMt2 in the kinact/KI determination (in words) (LdtMt2 [1]): no evidence for inhibition; Area (%) 15 min, adduct with assignment N.D. (+309 Da for 5, +80 Da for 8 and 9) (LdtMt2 [2]): 0.0%; Area (%) 24 h, adduct with assignment N.D. (+309 Da for 5, +80 Da for 8 and 9) (LdtMt2 [2]): 14.9%; half-life (t1/2) of reaction with GSH [3]: 38 min
3 | O=C(C1OC1c1ccccc1)C1OC1c1ccccc1 (mixture of isomers) [diastereomeric mixture of 1] | – | – | – | – | – | – | – | – | – | 5.59 ± 0.036 and 5.6 ± 0.04 | –
4 | O=C(c1ccccc1)C1OC1c1ccccc1 (racemic) [Epoxide 12, reference compound] | – | 0.0 | 8.6 | 91.4 | – | 87.2 | 0.0 | 12.8 | – | < 4.4 | inhibition of LdtMt2 in dose-response assays (in words) (LdtMt2 [4]): did not manifest inhibition; covalent reaction with LdtMt2 (in words) (LdtMt2 [2]): evidenced covalent reaction
5 | Cc1cc(C)cc([C@@H]2O[C@H]2C(=O)[C@@H]2O[C@H]2c2cc(C)cc(C)c2)c1 (relative stereo) [DEK 7] | 80.9 ± 6.74 | 43.7 | 44.8 | 11.5 | ~16% and 16.2% | 70.3 | 0.0 | 0.0 | 1.71 ± 0.24 M⁻¹ s⁻¹ and 1.7 ± 0.2 M⁻¹ s⁻¹ | – | Area (%) 15 min, assignment Dha (-34 Da) (LdtMt2 [2]): 0.0%; Area (%) 15 min, assignment Unassigned fragment / Fragment II (+56/+57 Da) (LdtMt2 [2]): 0.0%; half-life (t1/2) of reaction with GSH [3]: 24 min
6 | O=C([C@H]1O[C@@H]1c1ccccc1)[C@@H]1O[C@H]1c1ccccc1 [DEK 1] | – | – | – | – | – | – | – | – | < 0.8 M⁻¹ s⁻¹ | – | IC50 (LdtMt2 [4]; 15 min preincubation, 100 nM LdtMt2, 25 µM Probe 1, n=4): 617 nM and 631 nM; IC50 (LdtMt2 [4]; 30 min pre-incubation): 63.1 nM; IC50 (LdtMt2 [4]; Table S3, 10 min pre-incubation, 100 nM LdtMt2, 25 µM Probe 1): 1000 nM; kinact/KI (LdtMt2 [1]; 100 nM LdtMt2, 10 µM Probe 1, 3.5 h): 484 ± 28.4 M⁻¹ s⁻¹; Area (%) 15 min, assignment Dha (-34 Da) (LdtMt2 [2]; [5]): 0.0%; Area (%) 15 min, assignment Retro-aldol fragment (3) (LdtMt2 [2]; [5]): 23.3%; Area (%) 15 min, assignment Unfragmented (2) (LdtMt2 [2]; [5]): 74.7%; Area (%) 15 min, assignment Unmodified LdtMt2 (LdtMt2 [2]; [5]): 2.0%; Area (%) 24 h, assignment Dha (-34 Da) (LdtMt2 [2]; [6]): ~5% and 5.0%; Area (%) 24 h, assignment Retro-aldol fragment (3) (LdtMt2 [2]; [6]): 82.0%; Area (%) 24 h, assignment Unfragmented (2) (LdtMt2 [2]; [6]): 7.2%; Area (%) 24 h, assignment Unmodified LdtMt2 (LdtMt2 [2]; [6]): 0.0%; Area (%) 15 min, assignment Unassigned fragment / Fragment II (+56/+57 Da) (LdtMt2 [2]; 1 µM LdtMt2, inhibitor 20 µM, rt, 15 min): 0.0%; covalent reaction with LdtMt2 (in words) (LdtMt2 [2]; 1 µM LdtMt2, inhibitor 20 µM (100 µM for 12)): covalently reacts with LdtMt2; time for conversion of the initial adduct (2, +267 Da) into the +160 Da adduct (3) (LdtMt2 [2]; 1 (20 µM), LdtMt2 (1 µM)): ≤ 2 h
7 | O=C(C1OC1c1ccc(OC(F)(F)F)cc1)C1OC1c1ccc(OC(F)(F)F)cc1 (stereo not shown) [DEK 4] | < 10.0 | 18.1 | 5.41 | 76.5 | ~2.5% and 2.4% | 97.6 | 0.0 | 0.0 | < 0.8 M⁻¹ s⁻¹ | – | inhibition of LdtMt2 in the kinact/KI determination (in words) (LdtMt2 [1]): no evidence for inhibition; Area (%) 15 min, assignment Dha (-34 Da) (LdtMt2 [2]): 0.0%
8 | O=C(C1OC1c1ccccc1OC(F)(F)F)C1OC1c1ccccc1OC(F)(F)F (stereo not shown) [DEK 6] | 140.6 ± 17.1 | 11.6 | 81.2 | 7.2 | no evidence for Dha formation | 93.2 | 0.0 | 2.6 | < 0.8 M⁻¹ s⁻¹ | – | Area (%) 15 min, assignment Unassigned fragment / Fragment II (+56/+57 Da) (LdtMt2 [2]): 0.0%
9 | O=C1C2(CCC13OC3c1ccccc1)OC2c1ccccc1 (stereo not shown) [DEK 9] | 25.8 ± 1.41 | 68.8 | 21.0 | 3.3 | – | 90.9 | 0.0 | 0.0 | < 0.8 M⁻¹ s⁻¹ | – | Area (%) 15 min, adduct with assignment N.D. (+309 Da for 5, +80 Da for 8 and 9) (LdtMt2 [2]): 6.9%; Area (%) 24 h, adduct with assignment N.D. (+309 Da for 5, +80 Da for 8 and 9) (LdtMt2 [2]): 9.1%
10 | O=C1C2(CCCC13OC3c1ccccc1)OC2c1ccccc1 (stereo not shown) [DEK 10] | < 10.0 | – | 0.0 | 100.0 | – | – | 9.8 | 90.2 | < 0.8 M⁻¹ s⁻¹ | < 4.4 | inhibition of LdtMt2 in the kinact/KI determination (in words) (LdtMt2 [1]): no evidence for inhibition
11 | O=C1C2(CCCCC13OC3c1ccccc1)OC2c1ccccc1 (stereo not shown) [DEK 11] | – | – | – | 100.0 | – | – | – | 100.0 | – | < 4.4 | –
